Assay results as given in ChEMBL document CHEMBL3301451, “MMV Malaria Box gametocyte functional viability assay screening”.

Tests used:
Type in all cases: functional
Set-up in all cases: concentration or dose not given beside the values
[1] = tested on: Plasmodium berghei; assay: MMV: P. berghei-infected blood was withdrawn from mice by cardiac pucture before being immediately added to ookinete culture medium containing test compounds. 26 hr later, GFP-positive ookinetes were identified and counted by automated microscopy. All compounds were tested in 4 independent experiments and data presented here is the mean.
[2] = tested on: Plasmodium falciparum; assay: (§1) MMV: P. falciparum NF54 functionally mature Stage V gametocytes were incubated for 24 hr in the presence of the test compounds. Gamete formation was then triggered by addition of 2uM xantheurenic acid and temperature decrease to ~20C. Male gamete exflagellation was recorded and analysed by automated microscopy after 20 min. All compounds were tested in 4 independent experiments and data presented here is the mean.
[3] = tested on: Plasmodium falciparum; assay: as §1, with “Female” for “Male”, “formation” for “exflagellation”, “24 hr later” for “and analysed”, “detection of surface labelling of female gametes with a Cy3-conjugated antibody reactive to Pfs25.” for “after 20 min.”; settings: NF54, 24 h

Structure (SMILES) | inhibition [1] | inhibition [2] | inhibition [3]
CSC1=NC(=Nc2c(C)cccc2C)C2(CCC(C(C)(C)C)CC2)N1c1ccc(Cl)cc1 (configuration not stated) | 10.1% | 15.7% | -11.8%
O=C(Nc1ccccc1O)c1ccc(-c2ccc(Cl)cc2Cl)o1 | -6.243% | 18.9% | -20.6%
COc1ccc(-n2ccnc2SCC(=O)Nc2cc(C)ccc2C)c(OC)c1 | -11.96% | 12% | -9.31%
CCOc1cccc(C(=O)Nc2ccc(-c3nc4ccccc4[nH]3)cc2)c1 | -10.12% | 32.1% | -29.6%
Cc1sc(NC(=O)c2ccco2)c(C(c2cccnc2)N2CCC(Cc3ccccc3)CC2)c1C (configuration not stated) | -7.977% | 9.35% | -26%
CCC(C)NCC(O)(c1ccc(Cl)cc1)c1ccc(Cl)cc1 (configuration not stated) | 2.874% | 25.7% | -7.82%
CC1=C(CC(=O)c2cccc([N+](=O)[O-])c2)C(=O)c2ccccc2C1=O | -6.724% | -2.58% | -17.4%
OC(CNC1CCCC1)Cn1c2ccccc2c2ccccc21 (configuration not stated) | -16.75% | -4.27% | 12.4%
Cc1cc(Nc2cccc(F)c2)nc(NCc2ccccc2)n1 | 4.533% | 20.4% | -45.8%
CCOC(=O)c1c(C)n(-c2ccc(Cl)cc2)c2ccc(OC(=O)C=Cc3ccccc3)cc12 | -22.23% | 18.8% | -9.97%
Brc1ccc(Nc2nc3ccccc3nc2Nc2ccc(Br)cc2)cc1 | -6.195% | 18.1% | -0.532%
Cc1ccc(-c2cc(C(=O)Nc3ccc(S(=O)(=O)N4CCCCC4)cc3)[nH]n2)c(O)c1 | -10.93% | 7.64% | -11.2%
Cc1ccc(Nc2nc(NCCO)c3ccccc3n2)cc1C | -19.56% | 12.7% | -25.6%
Oc1ccc(C(=C(Cl)Cl)c2ccc(O)cc2)cc1 | 3.378% | 5.51% | -25.3%
Cc1c(C)n(Cc2ccc(F)cc2)c2ccc(C(=O)NCc3ccco3)cc12 | 17.74% | 49.7% | -40.2%
O=C(NC1CCN(Cc2ccccc2)CC1)c1cc(-c2cccnc2)nc2ccc(Cl)cc12 | -13.2% | -6.01% | -32.7%
Oc1c(CN2CCN(c3ccccc3F)CC2)cc(Br)c2cccnc12 | 34.85% | 5.41% | 31.5%
FC(F)(F)c1cccc(Nc2nc(-c3ccccc3)nc3ncccc23)c1 | -9.471% | 10.8% | 8.9%
O=C(Nc1ccc(CN2CCOCC2)cc1)c1ccc(-c2cc(Cl)ccc2Cl)o1 | -15.91% | 2.57% | -21.4%
Oc1ccc(Cl)cc1CNc1nc2ccccc2[nH]1 | -5.247% | 53.3% | -26.8%
COc1ccc2sc(N(Cc3cccnc3)C(=O)c3ccc(C#N)cc3)nc2c1 | -20.76% | 18.5% | -25.4%
O=C(Nc1cccc(C2=NCCN2)c1)Nc1cccc(C2=NCCN2)c1 [IMIDOCARB] | -13.35% | -36.7% | -30.2%

Structure (SMILES) | inhibition [1] | inhibition [2] | inhibition [3]
O=C(O)C1Cc2c([nH]c3ccccc23)C(c2ccc(Cl)cc2Cl)N1 (configuration not stated) | -13.83% | 21% | -17.3%
FC(F)(F)c1ccc(Nc2nnnc3ccccc23)cc1 | 36.6% | 33.7% | -30.5%
CN(C)c1ccc(N2C(N)=NC(N)=NC2(C)C)cc1 | -13.4% | 71.6% | -61.8%
CCN(CC)CCNc1ccnc2cc(Cl)ccc12 | -23.67% | -16.3% | -29.9%
CCN(CC)CCCNc1nc(-c2ccc(Cl)cc2)nc2ccccc12 | -4.546% | -49.2% | -19.2%
COc1ccc(C2C(C(=O)Nc3cccc(OC)c3)c3ccccc3C(=O)N2C2CCCCC2)cc1 (configuration not stated) | -12.06% | 46.2% | -25.1%
Cc1nc2ccccc2c(O)c1CC=C(Cl)Cl | 2.285% | 6.46% | -3.75%
COc1cc(OC)c(N(C)C(=O)c2cc3c(s2)-c2ccccc2S(=O)(=O)C3)cc1Cl | -16.25% | 7.68% | -14.9%
COC(=O)c1ccc(C2C3=C(O)CC(c4ccc(F)cc4)CC3=Nc3ccccc3N2C(=O)c2ccccc2)cc1 (configuration not stated) | -3.179% | -76.8% | -31.4%
CCCCCCOC(=O)C1=C(C)NC(=O)NC1c1ccccc1F (configuration not stated) | -7.086% | 11.4% | -1.36%
COc1ccc2nc(C)cc(Nc3ccc(Cl)cc3)c2c1 | 4.092% | -17.3% | -15.3%
CN(C)CCCNCc1ccc(-c2ccc(F)c(Cl)c2)o1.Cl | -12.37% | 51.9% | 38.4%
COc1ccc(C(=O)NC(c2ccccc2Cl)c2cc(Cl)c3cccnc3c2O)cc1 (configuration not stated) | -9.997% | 2.11% | -6.93%
O=C(CSc1ccc2nnc(-c3cccc(F)c3)n2n1)Nc1ccc2c(c1)OCO2 | -8.438% | -1.24% | -24.8%
COc1cc(-c2nc(-c3ccc(Sc4ccccc4)cc3)c(-c3ccccc3)[nH]2)cc(OC)c1O | -6.549% | 13.5% | -13.7%
Cc1[nH]c(-c2ccc(F)cc2)cc1C(=O)NC1CCN(Cc2ccccc2)CC1 | -7.189% | 7.06% | -3.53%
CCCC(c1nnnn1C1CCCCC1)N1CCN(C(=O)c2ccco2)CC1.Cl (configuration not stated) | -10.21% | 23.7% | -48.5%
Cc1ccccc1OCCSc1nc2ccc(NC(=O)c3cccs3)cc2s1 | -6.357% | 11.6% | -2.71%
O=C(NCCCN1CCC(N2CCCCC2)CC1)C1=Cc2cc(Br)ccc2OC1 | -4.183% | 8.14% | 15%
Oc1c(C(Nc2ccccn2)c2cccc(Oc3ccccc3)c2)ccc2cccnc12 (configuration not stated) | -4.794% | -38.1% | -17.6%
CC(C)OCc1cc(CN2CCN(c3cccc(Cl)c3)CC2)c(O)c2ncccc12 | 5.6% | 10.1% | -27.4%
CC(C)CCNCC(O)Cn1c2ccccc2c2ccccc21.Cl (configuration not stated) | 4.97% | -10.1% | -12.9%

Structure (SMILES) | inhibition [1] | inhibition [2] | inhibition [3]
CCOC(=O)C1=CN(C)C=C(C(=O)OCC)C1c1cc(Br)c(OCC)c(OC)c1 | -13.86% | 22.3% | -20.1%
CN1CCN(c2nc(Nc3ccc(O)cc3)nc3ccccc23)CC1.Cl | -15.95% | 2% | -25.1%
CC(C)(C)c1ccc2c(c1)CN(Cc1ccc(Cl)cc1)CO2 | 3.358% | -12.2% | 6.43%
C[n+]1c2ccccc2nc2ccc(NCCO)cc21 | 4.233% | 33.8% | -21.5%
O=C(Nc1ccc(-c2nc3cc4ccccc4cc3[nH]2)cc1)c1cccc(Br)c1 | -21.87% | 30.7% | -0.0992%
Cc1c(C)n(CC(O)CNC2CCCCC2C)c2ccccc12 (configuration not stated) | -21.36% | 8.26% | -4.05%
COCCn1c(C)nc2ccccc2c1=O | -11.98% | 22.3% | -15.4%
COc1ccc2c(=O)cc(C(Cl)(Cl)Cl)oc2c1 | -22.17% | 31.7% | -23.2%
O=C(NNc1cc(N2CCCC2)nc(N2CCCC2)n1)c1ccccc1 | 26.51% | 30.4% | -28.5%
CN1CCN(c2ncnc3c2[nH]c2ccc(Cl)cc23)CC1 | -3.248% | -2.21% | 6.75%
COc1ccc(C(=O)C(CCC(CNC(C)(C)C)C(=O)c2ccc(OC)cc2)CNC(C)(C)C)cc1 (configuration not stated) | -12.62% | 16.3% | 4.72%
CCOC(=O)c1cnc2ccc(OC)cc2c1NCc1ccccc1 | -6.823% | -12.8% | -40.9%
OC(CNCC1CCCO1)Cn1c2ccc(Cl)cc2c2cc(Cl)ccc21 (configuration not stated) | 3.62% | -34.5% | -43.4%
Cc1cc(Nc2ccc(C)c(Cl)c2)n2nc(C(F)(F)F)nc2n1 | -5.541% | 17.1% | -44.8%
COc1ccc(N2CCN(C(CNC(=O)C3CCCCC3)c3ccc4c(c3)OCO4)CC2)cc1 (configuration not stated) | -5.593% | 29.7% | -22.9%
N#Cc1nc(Cc2cccc3ccccc23)oc1N1CCN(C(c2ccccc2)c2ccccc2)CC1 | -7.443% | 10.2% | -38.4%
CCC(O)c1ccc(Br)cc1NC(=O)c1cccc(Cl)c1 (configuration not stated) | -8.417% | 4.9% | -44%
Br.CCn1c2c(c(=N)c3c1CCC3)CCCC2 | -17.86% | -42.4% | -26.2%
Cc1cc(Nc2ccc3ccccc3c2)n2ncnc2n1 | -3.995% | -4.18% | -8.79%
O=C(NC1CCN(Cc2ccccc2)CC1)c1cc(C(=O)NC2CCN(Cc3ccccc3)CC2)cc(C(=O)NC2CCN(Cc3ccccc3)CC2)c1 | -11.8% | 57% | -6.87%
